Experiments:
[1] = tested on: human osteosarcoma cell line SJSA-1; test: Inhibition of proliferation of human osteosarcoma cell line SJSA-1 (DAPI staining, In Cell Analyzer); conditions: Homo sapiens, SJSA-1, 72 h, read-out: IC50 (nM), inhibitory activity on proliferation of human osteosarcoma cell line SJSA-1, SJSA-1, incubated 72 h
[2] = target: T1, MDM2 (Homo sapiens, UniProt Q00987); test: Inhibition test of MDM2-P53 (GST-MDM2, Biotin-P53, Anti-GST-Tb, SA-XL665); type: binding
T1 construct: made in house
T1 sequence (Q00987 whole entry): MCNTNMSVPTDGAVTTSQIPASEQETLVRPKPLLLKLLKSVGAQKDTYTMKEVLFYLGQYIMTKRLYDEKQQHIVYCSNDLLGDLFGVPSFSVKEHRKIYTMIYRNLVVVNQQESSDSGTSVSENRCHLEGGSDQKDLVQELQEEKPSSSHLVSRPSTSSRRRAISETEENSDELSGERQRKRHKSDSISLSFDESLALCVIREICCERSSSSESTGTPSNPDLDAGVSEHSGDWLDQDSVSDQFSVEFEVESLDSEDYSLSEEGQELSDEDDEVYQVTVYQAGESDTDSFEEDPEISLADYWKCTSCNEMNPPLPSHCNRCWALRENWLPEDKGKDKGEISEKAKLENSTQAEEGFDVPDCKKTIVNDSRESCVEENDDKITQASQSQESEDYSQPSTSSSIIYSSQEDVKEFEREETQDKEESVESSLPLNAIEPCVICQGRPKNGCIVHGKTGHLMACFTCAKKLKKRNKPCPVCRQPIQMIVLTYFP
How it was run: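 Compounds, serially diluted 5-fold (twelve concentrations), were shaken for 90 min at 25° C with a mix of GST-MDM2 (4 nM final), Biotin-P53, anti-GST-Tb and SA-XL665. Buffer: 1×PBS, 0.1% BSA, 5 mM DTT, 1 mM AEBSF; signal read on a microplate reader.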

Structure (SMILES)	IC50 [1] [nM]	IC50 [2] [nM]
COc1cc(OC)c(-c2nc3c(n2C(C)C)[C@@]2(C(=O)Nc4cc(Cl)ccc42)N(c2cc(F)cc(Cl)c2)C3=O)cn1 [Example S-175, (S)-6-chloro-5′-(3-chloro-5-fluorophenyl)-2′-(4,6-dimethoxypyridin-3-yl)-3′-isopropyl-3′H-spiro[dihydroindole-3,4′-pyrrolo[3,4-d]imidazole]-2,6′(5′H)-dione]	49.2	1.96
COc1cc(C2CC2)ncc1-c1nc2c(n1C(C)C)[C@@]1(C(=O)Nc3cc(Cl)ccc31)N(c1cc(F)cc(Cl)c1)C2=O [Example S-176, (S)-6-chloro-5′-(3-chloro-5-fluorophenyl)-2′-(6-cyclopropyl-4-methoxypyridin-3-yl)-3′-isopropyl-3′H-spiro[dihydroindole-3,4′-pyrrolo[3,4-d]imidazole]-2,6′(5′H)-dione]	28.8	1.76
COc1cc(OCCF)ncc1-c1nc2c(n1C(C)C)[C@@]1(C(=O)Nc3cc(Cl)ccc31)N(c1cccc(Cl)c1)C2=O [Example S-177, (S)-6-chloro-5′-(3-chlorophenyl)-2′-(6-(2-fluoroethoxy)-4-methoxypyridin-3-yl)-3′-isopropyl-3′H-spiro[dihydroindole-3,4′-pyrrolo[3,4-d]imidazole]-2,6′(5′H)-dione]	421	2.37
CCOc1ncc(-c2nc3c(n2C(C)C)[C@@]2(C(=O)Nc4cc(Cl)ccc42)N(c2cc(F)cc(Cl)c2)C3=O)c(OC)n1 [Example S-180, (S)-6-chloro-5′-(3-chloro-5-fluorophenyl)-2′-(2-ethoxy-4-methoxypyrimidin-5-yl)-3′-isopropyl-3′H-spiro[dihydroindole-3,4′-pyrrolo[3,4-d]imidazole]-2,6′(5′H)-dione]	56.8	4.6
